Patent US10188110B2 (TELEFLEX MEDICAL INCORPORATED, priority 2010, dated 2019)
Where a name gives a salt, the structure may show the parent alone. Read-outs that look alike come from different tables or passages of the source.

Assays:
[1] = tested on: Enterobacter aerogenes (E. aerogenes); assay: Kirby-Bauer disk diffusion in HCl agar; type: cell-based; conditions: for E. aerogenes Avg. ZOI: 5-FU 256 ppm
Description: (§1) Agar plates and cultures of S. aureus, P. aeruginosa, and Enterobacter aerogenes (E. aerogenes) were set up as described in EXPERIMENT 8. […] Cultures were diluted to 1×10^8 CFU/ml.
(§2) From each of the test solution, 20 μL was then dispensed over the Kirby Bauer diffusion disks. The disks were air dried for five minutes and using forceps applied over the agar plates. Plates were then incubated for 24 hours at 37° C. Subsequently the zones of inhibition were measured, in millimeters (mm) using calipers. Each test was run in triplicate.

S. aureus = conditions: for S. Aureus Avg. ZOI, HCl Alone: Table 8
Description: as §1, §2

[2] = tested on: S. aureus and P. aeruginosa
Excerpt: One centimeter long catheter segments were cut from Multi-lumen Central Venous Catheters (CVC) from Rifampin and Minocycline impregnated CVCs (Rif/Mino). Cultures of S. aureus and P. aeruginosa were started in Muller Hinton Broth. For each organism, concentration of the inoculum was adjusted to 1×10^8 CFU/ml using 0.5 McFarland standard. […] Plates were sneaked with a single organism using a sterile cotton applicator that was dipped into the broth culture. Using sterile forceps, 1 cm long catheter segments from the control and Rif/Mino catheters were vertically inserted into the agar. Plates were then incubated for 24 hours at 37° C. Each test was run in triplicate. Subsequently the zones of inhibition (ZOI) were measured, in millimeters (mm) using calipers and the three ZOI measurements for each test were averaged.

[3] = tested on: S. aureus and P. aeruginosa; conditions: HCl Conc. 0.001 M, Table 7
Description: as §1, §2

| SMILES | E. aerogenes Avg. ZOI ([1]; HCl Conc. 0 M) [mm] | E. aerogenes Avg. ZOI ([1]; HCl Conc. 0.01 M) [mm] | effect of HCl on inhibition ([1]; HCl concentration of 0.01 M) | S. Aureus Avg. ZOI (S. aureus; 5-FU 8 ppm, HCl Conc. 0 M) [mm] | S. Aureus Avg. ZOI (S. aureus; 5-FU 8 ppm, HCl Conc. 0.001 M) [mm] | S. Aureus Avg. ZOI (S. aureus; 5-FU 8 ppm, HCl Conc. 0.01 M) [mm] | S. Aureus Avg. ZOI (S. aureus; 5-FU 16 ppm, HCl Conc. 0 M) [mm] | S. Aureus Avg. ZOI (S. aureus; 5-FU 16 ppm, HCl Conc. 0.001 M) [mm] | S. Aureus Avg. ZOI (S. aureus; 5-FU 16 ppm, HCl Conc. 0.01 M) [mm] | Avg. ZOI HCl Alone ([2]; HCl Conc. 0.001 M, Table 6) [mm] | highest HCl concentration that allowed formation of a confluent lawn of organisms ([2]; Muller Hinton Agar plates) [M] | E. aerogenes Avg. ZOI, HCl Alone ([1]; HCl Conc. 0.01 M, Table 9) [mm] | Avg. ZOI HCl Alone [3] [mm] | S. Aureus Avg. ZOI, HCl Alone (S. aureus; HCl Conc. 0.001 M) [mm] | S. Aureus Avg. ZOI, HCl Alone (S. aureus; HCl Conc. 0.01 M) [mm] |
| --- | --- | --- | --- | --- | --- | --- | --- | --- | --- | --- | --- | --- | --- | --- | --- |
| O=c1[nH]cc(F)c(=O)[nH]1 [5-FU, 5-Fluorouracil] | 16.15 | 18.95 | enhanced inhibition | 0.0 | 0.0 | 13.8 | 10.0 | 11.5 | 21.4 | – | – | – | – | – | – |
| Cl [HCl, hydrochloric acid] | – | – | – | – | – | – | – | – | – | 0 | 0.01 | 0 | 0 | 0 | 0 |
